What was measured:
hCD8^+ T cells = test: hCD8+ T cell differentiation into effector T cells: IFNγ release, ELISA; format: cell-based, human; conditions: for IFNγ (% Control): 24 hrs, normalized per number of cells
Method: Differentiation of T Cells. The ability of T cells to differentiate from a naïve to an effector state was assessed by measuring the levels of IFNγ or GZMB synthesis following activation of the cells using a cocktail of anti-CD2/anti-CD3/anti-CD28 antibodies. Expression of IFNγ, GZMB, and other effector cytokines was measured by determining their concentration in the conditioned media 24-72 hrs after initiation of activation or by estimating the % cells expressing these cytokines using fluorescence-activated cell sorting (FACS).
Augmentation of hCD8^+ T Cell Differentiation into Effector T Cells. Naïve CD8+ T cells were isolated from human buffy coats using magnetic separation and the appropriate kit from Miltenyi Biotec. Cells were then activated using a cocktail of anti-CD2/anti-CD3/anti-CD28 antibodies. Differentiation of the cells into effector T cells was assessed by determining the levels of IFNγ and GZMB released into the media at 24 and 72 hrs, respectively using appropriate ELISA kits. Cytokine concentrations were normalized per number of cells present and expressed as % Untreated Control.

M-MDSCs = test: Tumor immunophenotyping of CT26 tumors (MDSCs); format: in vivo, mice; conditions: 0.2 mg/kg ip, CT26 tumors 250-1500 mm^3
Method: Tumor Immunophenotyping. To determine the effect of a therapeutic agent on a specific immune cell type in vivo, syngeneic tumor models were employed. In a typical experiment, tumors were allowed to grow to a certain size and were then treated for a specific number of days prior to termination. At the end of the experiment, animals were euthanized, tumors were excised and single cell suspensions were immediately obtained through dissociation of tumor tissues with collagenase. Tumor cell suspensions were then subject to FACS analysis in order to determine the presence of various biomarkers.
Tumor Immunophenotyping of CT26 Tumors. CT26-tumor bearing mice treated with either vehicle control or 0.2 mg/kg Compound (6) (ip, twice a day) were euthanized when the tumors had reached a size of 250-1500 mm^3. Tumors were excised and single cell suspensions were obtained using the tumor dissociation kit from Miltenyi Biotec per manufacturer's instructions. The suspensions were analyzed for the presence of MDSCs.

IRG1 = target: T1, IRG1 (Homo sapiens, UniProt A6NK06); test: Itaconic acid synthesis by LPS-stimulated macrophages (inhibition of IRG1), GC-MS; format: cell-based; conditions: LPS-stimulated hMDMs, 50, 100, 500 μM, LPS 8 hrs
T1 construct: Human monocytes, isolated from peripheral blood and differentiated into macrophages; endogenous in cells; host or cells: human monocyte-derived macrophages (hMDMs), M-CSF differentiated, LPS-stimulated
T1 sequence (A6NK06 1-481): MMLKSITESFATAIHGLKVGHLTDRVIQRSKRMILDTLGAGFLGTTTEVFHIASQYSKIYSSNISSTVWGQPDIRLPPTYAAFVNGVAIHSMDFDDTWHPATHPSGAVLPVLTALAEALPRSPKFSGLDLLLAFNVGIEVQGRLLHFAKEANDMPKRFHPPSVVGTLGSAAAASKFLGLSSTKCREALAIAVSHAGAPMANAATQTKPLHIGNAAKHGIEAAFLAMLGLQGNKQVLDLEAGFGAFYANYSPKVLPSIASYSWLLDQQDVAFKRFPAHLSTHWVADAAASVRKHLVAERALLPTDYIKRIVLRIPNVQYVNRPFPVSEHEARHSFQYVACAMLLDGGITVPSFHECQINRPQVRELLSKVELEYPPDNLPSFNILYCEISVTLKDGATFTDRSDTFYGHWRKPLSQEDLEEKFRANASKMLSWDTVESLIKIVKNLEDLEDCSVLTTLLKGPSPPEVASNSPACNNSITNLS
Method: Inhibition of IRG1. Itaconic acid levels are a measure of IRG1 expression/activity. To determine the activity of IRG, hMDMs were stimulated with 100 ng/mL LPS for 8 hrs in the presence or absence of the therapeutic agent. Gas chromatography-mass spectroscopy (GC-MS) was used to estimate the intracellular and extracellular concentration of the itaconic acid. In a typical assay, 1-5×10^6 cells were plated onto a 6-well plate and allowed to adhere overnight. The cells were then stimulated with 0.1-1 μg/mL LPS in the presence or absence of the compound of interest for 8 hrs. The cells were then washed and metabolites were extracted using methanol/water and acetonitrile additions. The aqueous phase of the mixture was dried and metabolites present were derivatized prior to the detection by GC-MS.
Itaconic Acid Synthesis by LPS-Stimulated Macrophages after Treatment with Compound (6). Human monocytes, isolated from peripheral blood and differentiated into macrophages in the presence of 100 ng/mL monocyte colony-stimulating factor (M-CSF) for 5 days, were plated onto a 6-well plate at a density of 1×10^6 cells/well. The cells were allowed to adhere overnight. […] Derivatized metabolites were analyzed by GC-MS. The amount of itaconic acid present in the samples was determined after peak integration. […]

## O=C(O)/C(=C\c1ccc(F)cc1)C(Cc1ccccc1)C(=O)O (centres unmarked) [Compound (6), 2-benzyl-3-[(4-flurophenyl)methylidene]butanedioic acid]
hCD8^+ T cells; 1 nM
  IFNγ (% Control): 129 % Control
hCD8^+ T cells; 10 nM
  IFNγ (% Control): 510 % Control
hCD8^+ T cells; 100 nM
  IFNγ (% Control): 274 % Control
hCD8^+ T cells; 10 μM
  IFNγ (% Control): 370 % Control
hCD8^+ T cells; 100 μM
  IFNγ (% Control): 198 % Control
hCD8^+ T cells; 500 μM
  IFNγ (% Control): 47 % Control
hCD8^+ T cells; high (>100 μM) concentrations
  IFNγ synthesis following TCR activation: decrease
hCD8^+ T cells; low concentrations, 0.1 nM to 100 μM
  synthesis of INFγ following TCR activation: increased synthesis
M-MDSCs
  intratumoral frequency of M-MDSCs: significantly reduces
IRG1
  extracellular levels of itaconic acid: suppressed
  intracellular levels of itaconic acid: suppressed
